Results as given in ChEMBL document CHEMBL5321231, “Synthesis, antiviral activity, and computational study of β-d-xylofuranosyl nucleoside phosphonates” (Eur J Med Chem, 2023).
Active and inactive are the calls of the source. The calls are words filed in the database; no cut-off is given here.

Columns and labels:
Measles morbillivirus [1] = experiment: Antiviral activity against MeV CC strain infected in African green monkey Vero 76 cells assessed as reduction in virus induced cytopathic effect incubated for 6 days by neutral red dye based spectrophotometric analysis; format: functional, organism-based; settings: Vero 76, 144 h
[2] = Selectivity index, ratio of CC50 for cytotoxicity against human RD cells to EC50 for antiviral activity against EV-68 US/KY/14-18953 infected in human RD cells by visual analysis; format: toxicity, cell-based; settings: read-out: Ratio CC50/EC50
Hepatitis B virus = experiment: Antiviral activity against Hepatitis B virus; format: functional, organism-based
[3] = Selectivity index, ratio of CC50 for cytotoxicity against human RD cells to EC50 for antiviral activity against EV-68 US/KY/14-18953 infected in human RD cells by neutral red dye based spectrophotometric analysis; format: toxicity, cell-based; settings: read-out: Ratio CC50/EC50
Tacaribe virus = experiment: Antiviral activity against TCRV TRVL 11573 strain infected in African green monkey Vero 76 cells assessed as reduction in virus induced cytopathic effect incubated for 7 days by neutral red dye based spectrophotometric analysis; format: functional, organism-based; settings: Mammarenavirus tacaribeense, time 7.0 day
Influenza A virus = experiment: Antiviral activity against influenza A virus H1N1 California/07/2009 infected in dog MDCK cells assessed as reduction in virus induced cytopathic effect incubated for 6 days by neutral red dye based spectrophotometric analysis; format: functional, organism-based; settings: time 6.0 day
dengue virus type 2 [4] = experiment: Antiviral activity against DENV-2 New Guinea C infected in human Huh-7 cells assessed as reduction in virus induced cytopathic effect incubated for 6 days by neutral red dye based spectrophotometric analysis; format: functional, organism-based; settings: Huh-7, 144 h
[5] = Cytotoxicity against human Huh-7 cells assessed as reduction in cell viability by neutral red dye based spectrophotometric analysis; format: toxicity
[6] = system: Middle East respiratory syndrome-related coronavirus; experiment: Antiviral activity against MERS-CoV EMC strain infected in […] cells assessed as reduction in virus induced cytopathic effect incubated for 5 days by neutral red dye based spectrophotometric analysis; format: functional, organism-based; settings: time 5.0 day
Herpesviridae sp. = experiment: Antiviral activity against HSV; format: functional, organism-based
Measles morbillivirus [7] = experiment: Antiviral activity against MeV CC strain infected in African green monkey Vero 76 cells assessed as reduction in virus induced cytopathic effect incubated for 6 days by visual analysis; format: functional, organism-based; settings: Vero 76, 144 h
[8] = system: Respiratory syncytial virus; experiment: Antiviral activity against RSV A2 strain infected in vervet monkey MA-104 cells assessed as reduction in virus induced cytopathic effect incubated for 6 days by neutral red dye based spectrophotometric analysis; format: functional, organism-based; settings: time 6.0 day
[9] = Cytotoxicity against human Huh-7 cells assessed as reduction in cell viability by visual analysis; format: toxicity, cell-based
dengue virus type 2 [10] = experiment: Antiviral activity against DENV-2 New Guinea C infected in human Huh-7 cells assessed as reduction in virus induced cytopathic effect incubated for 6 days by visual analysis; format: functional, organism-based; settings: Huh-7, 144 h
[11] = Cytotoxicity against human RD cells assessed as reduction in cell viability by neutral red dye based spectrophotometric analysis; format: toxicity
enterovirus D68 [12] = experiment: Antiviral activity against EV-68 US/KY/14-18953 infected in human RD cells assessed as reduction in virus induced cytopathic effect incubated for 3 days by neutral red dye based spectrophotometric analysis; format: functional, organism-based; settings: Enterovirus D, US/KY/14-18953, RD, 72 h
[13] = Cytotoxicity against human RD cells assessed as reduction in cell viability by visual analysis; format: toxicity, cell-based
[14] = Cytotoxicity against African green monkey Vero 76 cells assessed as reduction in cell viability by neutral red dye based spectrophotometric analysis; format: toxicity; settings: chlorocebus sabaeus
[15] = Cytotoxicity against African green monkey Vero 76 cells assessed as reduction in cell viability by visual analysis; format: toxicity, cell-based; settings: chlorocebus sabaeus
enterovirus D68 [16] = experiment: Antiviral activity against EV-68 US/KY/14-18953 infected in human RD cells assessed as reduction in virus induced cytopathic effect incubated for 3 days by visual analysis; format: functional, organism-based; settings: Enterovirus D, US/KY/14-18953, RD, 72 h
[17] = Selectivity index, ratio of CC50 for cytotoxicity against African green monkey Vero 76 cells to EC50 for antiviral activity against MeV CC strain infected in African green monkey Vero 76 cells by visual analysis; format: toxicity, cell-based; settings: read-out: Ratio CC50/EC50
[18] = Selectivity index, ratio of CC50 for cytotoxicity against African green monkey Vero 76 cells to EC50 for antiviral activity against MeV CC strain infected in African green monkey Vero 76 cells by neutral red dye based spectrophotometric analysis; format: toxicity, cell-based; settings: read-out: Ratio CC50/EC50

| Structure (SMILES) | EC50 (Measles morbillivirus [1]) [µM] | Activity (Hepatitis B virus) | Activity (Tacaribe virus) | Activity (Influenza A virus) | EC50 (dengue virus type 2 [4]) [µM] | CC50 [5] [µM] | Activity [6] | Activity (Herpesviridae sp.) | EC50 (Measles morbillivirus [7]) [µM] | Activity [8] | CC50 [9] [µM] | EC50 (dengue virus type 2 [10]) [µM] | CC50 [11] [µM] | EC50 (enterovirus D68 [12]) [µM] | CC50 [13] [µM] | CC50 [14] [µM] | CC50 [15] [µM] | EC50 (enterovirus D68 [16]) [µM] | selectivity ratio [17] | selectivity ratio [18] | further results |
| --- | --- | --- | --- | --- | --- | --- | --- | --- | --- | --- | --- | --- | --- | --- | --- | --- | --- | --- | --- | --- | --- |
| O=c1[nH]cnc2c1ncn2[C@@H]1O[C@H](CO)[C@H](OCP(=O)(O)O)[C@H]1O | > 100 | inactive | inactive | inactive | > 100 | > 100 | inactive | inactive | > 100 | inactive | > 100 | > 100 | > 100 | 89 | > 100 | > 100 | > 100 | 46 |  |  | selectivity ratio [2]: > 2.2; selectivity ratio [3]: > 1.1 |
| Nc1ccn([C@@H]2O[C@H](CO)[C@@H](O)[C@H]2F)c(=O)n1 | 0.95 |  |  |  |  |  |  |  | 0.7 |  |  |  |  |  |  | > 100 | > 100 |  | > 140 | > 110 |  |
| Nc1ccn([C@@H]2O[C@H](CO)[C@H](OCP(=O)(O)O)[C@H]2O)c(=O)n1 | 49 | inactive | inactive | inactive | > 100 | > 100 | inactive | inactive | 72 | inactive | > 100 | > 100 | > 100 | > 100 | > 100 | > 100 | > 100 | > 100 | > 1.4 | > 2 |  |
| NC(=O)c1ncn([C@@H]2O[C@H](CO)[C@@H](O)[C@H]2O)n1 |  |  | inactive | inactive |  |  |  |  |  | inactive |  |  |  |  |  |  |  |  |  |  |  |
| Nc1nc2c(ncn2[C@@H]2O[C@H](CO)[C@H](OCP(=O)(O)O)[C@H]2O)c(=O)[nH]1 | > 100 | inactive | inactive | inactive | > 100 | > 100 | inactive | inactive | > 100 | inactive | > 100 | > 100 | > 100 | 40 | 73 | > 100 | > 100 | 47 |  |  | selectivity ratio [2]: 1.6; selectivity ratio [3]: > 2.5 |
| Nc1ncnc2c1ncn2[C@@H]1O[C@H](CO)[C@H](OCP(=O)(O)O)[C@H]1O | 14 | inactive | inactive | inactive | > 100 | > 100 | inactive | inactive | 12 | inactive | > 100 | > 100 | > 100 | 20 | > 100 | > 100 | > 100 | 16 | > 8.3 | > 7.1 | selectivity ratio [2]: > 6.3; selectivity ratio [3]: > 5 |
| O=c1ccn([C@@H]2O[C@H](CO)[C@H](OCP(=O)(O)O)[C@H]2O)c(=O)[nH]1 | 82 | inactive | inactive | inactive | > 84 | > 100 | inactive | inactive | 72 | inactive | > 100 | > 100 | > 100 | > 100 | > 100 | > 100 | > 100 | > 100 | > 1.4 | > 1.2 |  |
| CC(C)S(=O)(=O)n1c(N)nc2ccc(/C(=N/O)c3ccccc3)cc21 [ENVIROXIME] |  |  |  |  |  |  |  |  |  |  |  |  | 5.5 |  | 10 |  |  |  |  |  |  |
